# Reference: PubChem BioAssay (NCI)
#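 Briefly, cells in 96-well plates were exposed to five compound concentrations for 48 h, and endpoints were estimated by linear interpolation. GI50 = concentration required for 50% inhibition of growth. At the TGI there is no net growth.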
# Test system: RXF-631 renal
# Assay: NCI anticancer screen, dose series, 48 h
Structure (SMILES),GI50 [µM],TGI [µM]
CCC[CH2][Sn]([CH2]CCC)([O]C(=O)C(N)CSC)[O]C(=O)C(N)CSC (stereo not drawn),3.16,17.3
CC(=O)/C(=C\C1=CCCO1)C(=O)Nc1ccccc1C,–,> 100
NC(=S)N/N=C(\C(=O)Nc1cccc([N+](=O)[O-])c1)c1nc2ccc([N+](=O)[O-])cc2[nH]c1=O,–,> 100
CCCCCCCCCCC(O)C1CCC(C(O)CCC(O)C2CCC(CCCCCCC[C@H](O)CC3=C[C@@H](C)OC3=O)O2)O1 (stereo partly drawn),–,> 100
O=c1ccnc2c1ccc1[nH]cccc12,–,> 100
COc1ccc2cc3[n+](cc2c1OC)CCc1cc(O)c(O)cc1-3,–,> 100
CSc1nc(NC(=O)O)c(N(C(C)=O)C(=O)O)c(=O)n1C,–,> 100
COc1ccc(C(=O)OC2C=COC(C)C2OC(=O)c2ccc(OC)cc2)cc1 (stereo not drawn),–,81.3
Nc1nc(=S)[nH]c(C(=O)Nc2ccc(Cl)c(Cl)c2)c1-c1ccc(Cl)cc1,–,> 100
COC(=O)C12C3C4C5C3(C#N)C1C5(C(=O)OC)C42C(=O)N(C(C)C)C(C)C (stereo not drawn),–,> 100
CCCCc1ccc(-n2c3nc(=O)n(C)c(=O)c-3nc3ccccc32)cc1,–,35.3
Cc1ccc(NC(=O)CC(=O)n2nc(-c3ccccc3)c(N=Nc3ccccc3Cl)c2-c2ccccc2)cc1,–,> 100
Cc1ccc(/C=C/C(=O)c2sc(-c3cccnc3)nc2C)cc1,–,> 100
CC1(C)CCC[C@@]2(C)C1CC[C@H]1CC(O)C3(C)CCC12C3 (stereo partly drawn),–,33.5
Nc1ncn(C2C=C(CO)C(O)C2O)c(=O)n1 (stereo not drawn),–,> 100
O=c1[nH]c2c3ccccc3ccc2c2cc3c(cc12)OCO3,–,> 100
CC(=O)N/C(=C\c1cccc([N+](=O)[O-])c1)c1nc2c3c(ccc2[nH]1)C(=O)c1ccccc1C3=O,–,> 100
